Assay results published in patent US9555055B2, “Use of albiflorin and metabolites thereof” (priority 2010, dated 2017).
Counter-ions that a name gives are not always drawn. Marks after values point to notes of the source that are not given here.

Columns and labels:
Format in all cases: in vivo
[1] = test system: 5-HT1A receptor; assay: mRNA expression of 5-HT1A receptor in hippocampus of chronic stress rats (RT-PCR); details: 2.5 mg/kg/d, 21 days
Method: After having free access to food and being deprived water for 24 h, 72 normal rats were administered with 1% sucrose aqueous solution, and measured the consumption within 1 h. According to the consumption of sucrose aqueous solution, the rats were randomly divided into six groups, 12 […] per group, i.e. normal control group, model group, positive drug Prozac group (2.5 mg/kg/d), high-dose group (70 mg/kg/d, comprising 11.2 mg of albiflorin), medium-dose group (35 mg/kg/d, comprising 5.6 mg of albiflorin), and low-dose group (17.5 mg/kg/d, comprising 2.8 mg of albiflorin) of Paeonia lactiflora Pall extract. When being modeled, the rats were simultaneously administered with drugs, once a day, for consecutive 21 days. […]
According to the instruction of TRIzol reagent, the total RNAs were extracted by one-step guanidine-isothiocyanate method. The integrity of the extracted total RNAs was confirmed by 0.9% agarose gel electrophoresis, and the content and purity of RNA were determined by UV spectrophotometer. […]
30 μl of 5-HT1A-R-amplified product and 10 μl of Actin-amplified product were mixed, and then subjected to 1.5% agarose gel electrophoresis. […] The ratio of IOD5-HTR/IODActin was the relative quantification of the amplified products, and the intergroup comparisons were carried out.

[2] = test system: ICR mice; assay: Sleeping-inducing test of pentobarbital sodium at the subthreshold dose; details: 2 mg/kg, 14 days; pentobarbital sodium 35 mg/kg ip
[3] = test system: KM mice; assay: Light-dark box test in mice (anti-anxiety test); details: 2.5 mg/kg/d gavage, 7 days, test 1 h after administration on Day 8
Method: Mice were randomly divided into 5 groups, i.e. high-dose group (14 mg/kg/d), medium-dose group (7 mg/kg/d), low-dose group (3.5 mg/kg/d) of Albiflorin, diazepam group (2.5 mg/kg/d), NS group. Gavage administration was performed once a day, for consecutive 7 days. During the administration, animals had free access to feed and water. The test was carried out 1 hour after the administration on Day 8.
Within the light-dark box (44 cm×21 cm×21 cm), the dark box accounts for one third thereof, with a cover on the top; while the light box accounts for two thirds thereof, providing illumination brightness; and there is a hole between the two boxes for animal to pass through. In the test, mice were placed in the center of the light box, back to the dark box, and then observed. The times of entering into the dark box followed by returning to the light box in mice were counted, as an index for the assession of anti-anxiety effect of a drug.

[4] = test system: ICR mice; assay: Spontaneous actions in mice; details: 14 days after administration
Method: (§1) 140 ICR mice (15-17 g, male, purchased from Institute of Laboratory Animal Sciences, CAMS & PUMC) were randomly divided into 10 groups (14 mice per group) as follows: paeoniflorin group at a dose of 100 mg/kg, paeoniflorin group at a dose of 50 mg/kg, paeoniflorin group at a dose of 25 mg/kg, paeoniflorin group at a dose of 12.5 mg/kg, albiflorin group at a dose of 28 mg/kg, albiflorin group at a dose of 14 mg/kg, albiflorin group at a dose of 7 mg/kg, normal saline control group, high-dose group of doxepin as a positive drug (25 mg/kg), and low-dose group of doxepin as a positive drug (1 mg/kg).

[5] = test system: ICR mice; assay: Sleeping-inducing test of pentobarbital sodium at the subthreshold dose; details: 14 days, pentobarbital sodium 35 mg/kg ip
Method: as §1
(§2) If the mice were kept in a supine position for more than 1 min, it would be considered that the righting reflex was disappeared in mice. After spontaneously rolling over, the mice were immediately placed in a supine position. If the mice could roll over within 1 min, it would be considered that the righting reflex was recovered. The time of the righting reflex being disappeared and recovered in mice were recorded. The period from the mice being intraperitoneally injected with pentobarbital sodium until the righting reflex being disappeared in mice was recorded as sleep latency. The period from the righting reflex being disappeared in mice until the righting reflex being recovered in mice was recorded as sleep duration. The sleep duration of more than 5 min in mice was considered as being asleep.
(§3) The mice were administered with drugs for consecutive 14 days. 1 h after the last administration, the mice were intraperitoneally injected with the subthreshold dose of pentobarbital sodium (35 mg/kg, 0.1 ml/10 g). The righting reflex being disappeared and recovered in mice were observed, and the time of the righting reflex being disappeared and recovered in mice were recorded. The evaluation criteria of sleep latency, sleep duration and sleep rate were the same as those in Section 7.2.1.

[6] = test system: ICR mice; assay: Sleep-prolonging test of pentobarbital sodium at the suprathreshold dose; details: 10 days, pentobarbital sodium 51 mg/kg ip
Method: as §2
as §3, with “10” for “14”, “suprathreshold” for “subthreshold”, “(51” for “(35”

CNCCC(Oc1ccc(C(F)(F)F)cc1)c1ccccc1 (centres unmarked) [Positive Drug, fluoxetine hydrochloride]
mRNA expression of 5-HT1A receptor (ratio IOD5-HTR/IODActin) [1]: 0.63 ± 0.21

CN1C(=O)CN=C(c2ccccc2)c2cc(Cl)ccc21 [Diazepam]
Number of Sleeping Mice/Group [2]: 12
Sleep Rate [2]: 12/13*
Times of Returning from Dark Box back to Light Box [3]: 13.6 ± 3.35
Times of Spontaneous Action ([4]; 2 mg/kg): 301.85 ± 103.11

C[C@@]12C[C@@]3(O)O[C@@H](O1)[C@]1(COC(=O)c4ccccc4)[C@H]3C[C@@]12O[C@@H]1O[C@H](CO)[C@@H](O)[C@H](O)[C@H]1O [Paeoniflorin, paeoniflorin]
Number of Sleeping Mice/Group ([5]; 12.5 mg/kg): 2
Sleep Rate ([5]; 12.5 mg/kg): 2/13
Number of Sleeping Mice/Group ([5]; 25 mg/kg): 4
Sleep Rate ([5]; 25 mg/kg): 1/3
Number of Sleeping Mice/Group ([5]; 50 mg/kg): 5
Sleep Rate ([5]; 50 mg/kg): 5/12
Number of Sleeping Mice/Group ([5]; 100 mg/kg): 3
Sleep Rate ([5]; 100 mg/kg): 3/11
Times of Spontaneous Action ([4]; 12.5 mg/kg): 456.71 ± 93.95
Times of Spontaneous Action ([4]; 25 mg/kg): 468.71 ± 73.56
Times of Spontaneous Action ([4]; 50 mg/kg): 503.00 ± 137.04
Times of Spontaneous Action ([4]; 100 mg/kg): 434.45 ± 76.43
Sleep Duration ([6]; 12.5 mg/kg): 74.57 ± 13.02 min
Sleep Latency ([6]; 12.5 mg/kg): 4.11 ± 1.52 min
Sleep Duration ([6]; 25 mg/kg): 68.64 ± 19.23 min
Sleep Latency ([6]; 25 mg/kg): 4.96 ± 2.18 min
Sleep Duration ([6]; 50 mg/kg): 73.70 ± 27.88 min
Sleep Latency ([6]; 50 mg/kg): 5.17 ± 1.37 min
Sleep Duration ([6]; 100 mg/kg): 72.98 ± 20.83 min
Sleep Latency ([6]; 100 mg/kg): 28.10 ± 44.63 min

CN(C)CCC=C1c2ccccc2COc2ccccc21.Cl [Doxepin, Doxepin Hydrochloride]
Number of Sleeping Mice/Group ([5]; 1 mg/kg): 1
Sleep Rate ([5]; 1 mg/kg): 1/12
Times of Spontaneous Action ([4]; 1 mg/kg): 420.50 ± 110.28
Sleep Duration ([6]; 1 mg/kg): 74.91 ± 16.55 min
Sleep Latency ([6]; 1 mg/kg): 4.38 ± 1.60 min
Sleep Duration ([6]; 25 mg/kg): 63.60 ± 12.09 min
Sleep Latency ([6]; 25 mg/kg): 4.72 ± 2.40 min
